{"source": "paper PMC8474115", "about": "(Journal of Medicinal Chemistry, 2021)", "key": {"[1]": {"biological_target": "Ca Channel L-Type, Benzothiazepine (Rattus norvegicus, UniProt P22002)", "sequence (P22002 whole entry)": "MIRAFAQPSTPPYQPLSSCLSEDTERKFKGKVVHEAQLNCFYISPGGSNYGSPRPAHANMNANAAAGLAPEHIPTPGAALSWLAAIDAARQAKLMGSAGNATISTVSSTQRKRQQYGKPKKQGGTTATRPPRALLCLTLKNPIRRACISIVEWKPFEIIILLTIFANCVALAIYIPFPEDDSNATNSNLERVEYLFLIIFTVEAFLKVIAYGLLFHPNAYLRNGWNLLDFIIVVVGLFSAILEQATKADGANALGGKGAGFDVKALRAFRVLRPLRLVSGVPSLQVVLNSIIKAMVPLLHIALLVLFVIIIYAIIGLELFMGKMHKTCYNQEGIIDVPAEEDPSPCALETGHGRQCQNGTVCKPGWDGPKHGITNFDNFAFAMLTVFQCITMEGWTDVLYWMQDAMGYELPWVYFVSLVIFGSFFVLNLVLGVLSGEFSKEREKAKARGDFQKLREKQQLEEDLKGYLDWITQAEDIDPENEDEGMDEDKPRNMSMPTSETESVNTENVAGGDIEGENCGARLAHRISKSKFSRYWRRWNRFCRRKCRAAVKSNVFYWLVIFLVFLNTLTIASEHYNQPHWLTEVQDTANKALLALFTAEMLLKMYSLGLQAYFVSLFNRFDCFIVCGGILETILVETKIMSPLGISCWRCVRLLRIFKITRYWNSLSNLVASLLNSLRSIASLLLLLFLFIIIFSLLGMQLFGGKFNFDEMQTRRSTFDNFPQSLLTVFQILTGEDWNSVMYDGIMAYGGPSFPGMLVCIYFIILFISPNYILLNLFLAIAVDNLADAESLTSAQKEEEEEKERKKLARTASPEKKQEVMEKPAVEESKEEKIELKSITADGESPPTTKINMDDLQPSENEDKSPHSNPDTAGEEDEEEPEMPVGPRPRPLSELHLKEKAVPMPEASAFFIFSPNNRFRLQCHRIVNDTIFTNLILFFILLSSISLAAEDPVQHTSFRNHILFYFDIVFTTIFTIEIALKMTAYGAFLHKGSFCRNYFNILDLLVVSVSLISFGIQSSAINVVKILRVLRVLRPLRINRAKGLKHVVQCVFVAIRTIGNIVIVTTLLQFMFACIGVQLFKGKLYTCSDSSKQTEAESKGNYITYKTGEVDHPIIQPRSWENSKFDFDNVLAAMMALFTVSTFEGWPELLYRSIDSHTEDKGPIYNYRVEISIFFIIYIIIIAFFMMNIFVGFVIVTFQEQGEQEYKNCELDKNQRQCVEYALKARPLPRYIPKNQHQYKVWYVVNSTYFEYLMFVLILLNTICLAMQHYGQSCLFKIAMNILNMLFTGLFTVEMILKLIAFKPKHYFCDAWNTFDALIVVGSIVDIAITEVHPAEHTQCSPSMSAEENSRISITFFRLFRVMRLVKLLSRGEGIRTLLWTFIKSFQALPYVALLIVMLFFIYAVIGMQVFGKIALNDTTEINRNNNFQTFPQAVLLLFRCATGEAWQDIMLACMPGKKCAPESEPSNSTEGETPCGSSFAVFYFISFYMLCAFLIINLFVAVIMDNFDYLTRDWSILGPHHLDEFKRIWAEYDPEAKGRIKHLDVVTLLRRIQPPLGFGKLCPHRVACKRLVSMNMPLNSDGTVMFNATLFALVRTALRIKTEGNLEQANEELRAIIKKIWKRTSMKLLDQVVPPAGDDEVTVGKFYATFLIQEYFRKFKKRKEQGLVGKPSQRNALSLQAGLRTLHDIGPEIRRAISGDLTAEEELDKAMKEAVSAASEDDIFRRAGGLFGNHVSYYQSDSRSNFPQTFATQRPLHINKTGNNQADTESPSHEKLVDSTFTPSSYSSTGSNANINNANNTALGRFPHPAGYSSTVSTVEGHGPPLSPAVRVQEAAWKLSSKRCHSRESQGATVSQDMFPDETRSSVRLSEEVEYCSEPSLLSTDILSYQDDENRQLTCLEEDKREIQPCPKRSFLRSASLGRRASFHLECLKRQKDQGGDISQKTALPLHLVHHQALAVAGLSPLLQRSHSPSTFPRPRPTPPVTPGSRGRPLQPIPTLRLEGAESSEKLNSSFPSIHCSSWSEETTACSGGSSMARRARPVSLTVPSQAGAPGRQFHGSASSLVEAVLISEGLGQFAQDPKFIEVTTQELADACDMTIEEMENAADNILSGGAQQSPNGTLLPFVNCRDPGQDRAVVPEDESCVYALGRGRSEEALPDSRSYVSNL", "test": "Eurofins SafetyScreen panel", "format": "binding"}, "[2]": {"biological_target": "T1, Serotonin 5-HT2A (Homo sapiens, UniProt P28223)", "T1 construct": "Eurofins (contract assay)", "test": "Eurofins SafetyScreen panel", "format": "binding"}, "[3]": {"biological_target": "T2, Serotonin 5-HT5A (Homo sapiens, UniProt P47898)", "T2 construct": "Eurofins (contract assay) 272100", "T2 sequence (P47898 whole entry)": "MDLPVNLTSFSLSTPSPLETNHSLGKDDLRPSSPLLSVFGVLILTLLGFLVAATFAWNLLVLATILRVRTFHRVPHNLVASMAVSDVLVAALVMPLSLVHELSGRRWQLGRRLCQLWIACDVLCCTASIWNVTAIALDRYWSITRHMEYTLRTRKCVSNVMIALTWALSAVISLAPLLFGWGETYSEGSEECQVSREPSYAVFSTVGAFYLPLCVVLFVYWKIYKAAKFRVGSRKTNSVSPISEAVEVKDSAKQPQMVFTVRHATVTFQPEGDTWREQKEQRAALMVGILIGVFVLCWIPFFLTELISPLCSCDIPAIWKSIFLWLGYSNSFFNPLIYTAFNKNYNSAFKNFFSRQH", "test": "Eurofins SafetyScreen panel", "format": "binding"}, "[4]": {"biological_target": "T3, 5-HT2B receptors (Homo sapiens, UniProt P41595)", "T3 construct": "Eurofins, France", "test": "Agonist effect at 5-HT2B receptors (HTRF, Eurofins)", "format": "cell-based", "conditions": "1 μM", "procedure": "Experiment was performed in duplicate at Eurofins, France."}, "[5]": {"biological_target": "T4, Leukotriene, Cysteinyl CysLT1 (Homo sapiens, UniProt Q9Y271)", "T4 construct": "purchased Eurofins (Panlabs) SafetyScreen87 Panel", "test": "Eurofins SafetyScreen panel", "format": "binding"}, "[6]": {"biological_target": "T5, Adrenergic β1 (Homo sapiens, UniProt P08588)", "T5 construct": "Eurofins (contract screening, SafetyScreen panel) PP223", "T5 sequence (P08588 whole entry)": "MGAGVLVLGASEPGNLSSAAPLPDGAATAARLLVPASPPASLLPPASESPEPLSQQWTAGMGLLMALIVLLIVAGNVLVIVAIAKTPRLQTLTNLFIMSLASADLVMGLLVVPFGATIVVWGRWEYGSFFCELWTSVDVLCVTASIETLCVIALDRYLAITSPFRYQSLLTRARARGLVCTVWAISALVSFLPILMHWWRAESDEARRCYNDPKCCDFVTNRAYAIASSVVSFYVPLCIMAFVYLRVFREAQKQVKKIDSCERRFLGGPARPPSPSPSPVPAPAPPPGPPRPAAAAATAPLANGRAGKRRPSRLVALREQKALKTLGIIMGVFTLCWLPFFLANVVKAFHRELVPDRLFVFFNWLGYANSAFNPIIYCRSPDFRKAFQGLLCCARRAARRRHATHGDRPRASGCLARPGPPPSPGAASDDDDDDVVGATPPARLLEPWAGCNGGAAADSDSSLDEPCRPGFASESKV", "test": "Eurofins SafetyScreen panel", "format": "binding"}, "[7]": {"biological_target": "hERG potassium channel (Homo sapiens, UniProt Q12809)", "sequence (Q12809 whole entry)": "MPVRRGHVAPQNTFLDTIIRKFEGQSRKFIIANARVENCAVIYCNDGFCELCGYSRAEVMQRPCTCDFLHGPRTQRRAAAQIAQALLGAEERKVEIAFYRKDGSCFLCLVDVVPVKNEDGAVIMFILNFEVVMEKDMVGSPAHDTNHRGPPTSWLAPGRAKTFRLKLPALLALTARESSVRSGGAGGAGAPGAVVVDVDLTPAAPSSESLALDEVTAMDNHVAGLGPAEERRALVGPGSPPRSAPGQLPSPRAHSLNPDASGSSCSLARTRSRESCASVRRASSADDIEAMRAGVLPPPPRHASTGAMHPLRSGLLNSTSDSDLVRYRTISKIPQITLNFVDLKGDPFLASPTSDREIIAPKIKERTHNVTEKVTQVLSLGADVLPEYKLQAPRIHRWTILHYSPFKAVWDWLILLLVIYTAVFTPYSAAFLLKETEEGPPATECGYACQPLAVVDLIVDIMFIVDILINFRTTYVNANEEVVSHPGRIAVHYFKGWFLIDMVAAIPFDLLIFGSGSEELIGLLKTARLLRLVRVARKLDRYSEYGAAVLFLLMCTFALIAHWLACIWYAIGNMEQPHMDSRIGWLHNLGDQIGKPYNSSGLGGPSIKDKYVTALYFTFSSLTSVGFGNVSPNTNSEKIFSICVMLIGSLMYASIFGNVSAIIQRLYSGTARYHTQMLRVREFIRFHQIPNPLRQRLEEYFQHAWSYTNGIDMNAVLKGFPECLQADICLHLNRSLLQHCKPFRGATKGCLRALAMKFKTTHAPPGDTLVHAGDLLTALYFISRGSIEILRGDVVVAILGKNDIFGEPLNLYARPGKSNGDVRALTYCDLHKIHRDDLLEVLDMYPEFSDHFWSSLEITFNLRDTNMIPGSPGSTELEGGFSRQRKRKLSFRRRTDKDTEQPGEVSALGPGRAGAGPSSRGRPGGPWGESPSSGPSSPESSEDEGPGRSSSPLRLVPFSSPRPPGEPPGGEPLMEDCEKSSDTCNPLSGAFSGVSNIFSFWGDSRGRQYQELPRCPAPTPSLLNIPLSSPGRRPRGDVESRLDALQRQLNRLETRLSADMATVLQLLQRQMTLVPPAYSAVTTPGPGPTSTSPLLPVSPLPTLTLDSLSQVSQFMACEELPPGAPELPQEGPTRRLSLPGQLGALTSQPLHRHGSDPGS", "test": "in vitro", "conditions": "%inh"}, "[8]": {"biological_target": "T6, Protein Tyr Kinase, Insulin receptor (Homo sapiens, UniProt P06213)", "T6 construct": "Eurofins (contract screening, SafetyScreen panel) PP223", "test": "Eurofins SafetyScreen panel", "format": "biochemical"}, "[9]": {"biological_target": "T7, Adrenergic α2B (Homo sapiens, UniProt P18089)", "T7 construct": "Eurofins (contract screening, SafetyScreen panel) PP223", "T7 sequence (P18089 1-450)": "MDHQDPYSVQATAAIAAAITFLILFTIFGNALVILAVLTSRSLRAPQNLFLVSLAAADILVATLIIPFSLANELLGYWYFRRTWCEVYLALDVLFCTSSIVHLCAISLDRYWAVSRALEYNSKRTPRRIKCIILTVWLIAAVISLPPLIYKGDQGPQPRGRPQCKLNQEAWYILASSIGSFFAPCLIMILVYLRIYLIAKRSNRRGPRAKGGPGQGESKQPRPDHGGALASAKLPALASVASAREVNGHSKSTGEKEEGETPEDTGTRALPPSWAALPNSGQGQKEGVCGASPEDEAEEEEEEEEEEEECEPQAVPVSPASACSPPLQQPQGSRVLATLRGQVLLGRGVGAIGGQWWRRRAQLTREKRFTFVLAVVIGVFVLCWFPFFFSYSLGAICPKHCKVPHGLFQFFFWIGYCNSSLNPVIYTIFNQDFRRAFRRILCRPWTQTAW", "test": "Eurofins SafetyScreen panel", "format": "binding"}, "[10]": {"biological_target": "T8, Opiate κ (OP2, KOP) (Homo sapiens, UniProt P41145)", "T8 construct": "Eurofins (contract assay)", "T8 sequence (P41145 whole entry)": "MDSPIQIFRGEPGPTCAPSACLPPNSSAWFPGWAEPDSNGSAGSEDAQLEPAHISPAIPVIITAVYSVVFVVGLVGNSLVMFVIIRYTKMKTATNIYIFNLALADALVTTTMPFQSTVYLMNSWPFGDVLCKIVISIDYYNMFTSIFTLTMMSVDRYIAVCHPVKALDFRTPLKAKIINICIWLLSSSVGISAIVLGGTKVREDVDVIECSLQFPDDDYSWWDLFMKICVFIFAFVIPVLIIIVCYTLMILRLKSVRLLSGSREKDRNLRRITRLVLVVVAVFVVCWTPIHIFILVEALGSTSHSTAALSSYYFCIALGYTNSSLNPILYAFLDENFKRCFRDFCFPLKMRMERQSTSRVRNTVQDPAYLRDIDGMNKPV", "test": "Eurofins SafetyScreen panel", "format": "binding"}, "[11]": {"biological_target": "T9, Dopamine D2L (Homo sapiens, UniProt P14416)", "T9 construct": "purchased Eurofins (Panlabs) SafetyScreen87 Panel", "test": "Eurofins SafetyScreen panel", "format": "binding"}, "[12]": {"biological_target": "hD2L (Homo sapiens, UniProt P14416)", "conditions": "D2R"}, "[13]": {"biological_target": "T10, Serotonin 5-HT2B (Homo sapiens, UniProt P41595)", "T10 construct": "Eurofins (contract assay)", "T10 sequence (P41595 whole entry)": "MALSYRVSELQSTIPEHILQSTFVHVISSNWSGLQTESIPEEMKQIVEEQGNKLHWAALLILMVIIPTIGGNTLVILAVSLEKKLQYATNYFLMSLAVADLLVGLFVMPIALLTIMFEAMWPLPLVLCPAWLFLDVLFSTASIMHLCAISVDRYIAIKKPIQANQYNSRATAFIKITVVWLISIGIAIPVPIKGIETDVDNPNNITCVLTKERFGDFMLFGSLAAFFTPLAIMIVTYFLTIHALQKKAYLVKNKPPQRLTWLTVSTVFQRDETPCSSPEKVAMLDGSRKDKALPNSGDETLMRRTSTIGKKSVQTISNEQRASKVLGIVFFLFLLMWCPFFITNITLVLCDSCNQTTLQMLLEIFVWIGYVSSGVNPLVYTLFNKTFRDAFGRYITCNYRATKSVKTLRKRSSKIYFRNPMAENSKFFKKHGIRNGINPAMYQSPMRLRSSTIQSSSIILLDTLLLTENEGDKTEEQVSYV", "test": "Eurofins SafetyScreen panel", "format": "binding"}, "[14]": {"biological_target": "T11, Histamine H3 (Homo sapiens, UniProt Q9Y5N1)", "T11 construct": "purchased Eurofins (Panlabs) SafetyScreen87 Panel", "test": "Eurofins SafetyScreen panel", "format": "binding"}, "[15]": {"biological_target": "T12, Histamine H2 (Homo sapiens, UniProt P25021)", "T12 construct": "purchased Eurofins (Panlabs) SafetyScreen87 Panel", "test": "Eurofins SafetyScreen panel", "format": "binding"}, "[16]": {"biological_target": "T13, ACE (Oryctolagus cuniculus, UniProt P12822)", "T13 construct": "Eurofins", "test": "Eurofins SafetyScreen panel", "format": "biochemical, rabbit"}, "[17]": {"biological_target": "CYP3A4 (Homo sapiens, UniProt P08684)", "test": "Cytochrome P450 inhibition (Eurofins)"}, "[18]": {"biological_target": "T14, Muscarinic M4 (Homo sapiens, UniProt P08173)", "T14 construct": "Eurofins (contract screening, SafetyScreen panel) PP223", "test": "Eurofins SafetyScreen panel", "format": "binding"}, "[19]": {"biological_target": "T15, Dopamine D1 (Homo sapiens, UniProt P21728)", "T15 construct": "purchased Eurofins (Panlabs) SafetyScreen87 Panel", "test": "Eurofins SafetyScreen panel", "format": "binding"}, "[20]": {"biological_target": "T16, Glutamate Metabotropic, mGlu5 (Homo sapiens, UniProt P41594)", "T16 construct": "purchased Eurofins (Panlabs) SafetyScreen87 Panel", "test": "Eurofins SafetyScreen panel", "format": "binding"}, "[21]": {"biological_target": "T17, MAO-B (Homo sapiens, UniProt P27338)", "T17 construct": "Eurofins", "test": "Eurofins SafetyScreen panel", "format": "biochemical"}, "[22]": {"biological_target": "CYP2C19 (Homo sapiens, UniProt P33261)", "test": "Cytochrome P450 inhibition (Eurofins)"}, "[23]": {"biological_target": "T18, Serotonin 5-HT1B (Homo sapiens, UniProt P28222)", "T18 construct": "Eurofins (contract assay)", "test": "Eurofins SafetyScreen panel", "format": "binding"}, "[24]": {"biological_target": "Ca Channel L-Type, Dihydropyridine (Rattus norvegicus, UniProt P22002)", "sequence (P22002 whole entry)": "as the sequence (P22002 whole entry) above", "test": "Eurofins SafetyScreen panel", "format": "binding"}, "[25]": {"biological_target": "CYP1A2 (Homo sapiens, UniProt P05177)", "test": "Cytochrome P450 inhibition (Eurofins)"}, "[26]": {"conditions": "read-out: %inh, 10 μM, additional batch"}}, "note": "pIC50, pKi: −log10 of the molar value. Counter-ions that a name gives are not always drawn. Like-named read-outs stand apart in the source and are kept apart here.", "data": [{"smiles": "O=S(=O)(c1cccc(F)c1)n1ccc2c(N3CCNCC3)nc3ccccc3c21", "note": "[FPPQ, 1-[(3-Fluorophenyl)sulfonyl]-4-(piperazin-1-yl)-1H-pyrrolo[3,2-c]quinoline dihydrochloride]", "values": [{"measurement": "inhibition at 0.01 µM", "setting": "[1]; 10 nM", "result": -3, "unit": "%"}, {"measurement": "inhibition at 1 µM", "setting": "[1]; 1 μM", "result": 46, "unit": "%"}, {"measurement": "inhibition at 10 µM", "setting": "[1]", "result": 83, "unit": "%"}, {"measurement": "inhibition at 10 µM", "setting": "[1]; additional batch", "result": 92, "unit": "%"}, {"measurement": "inhibition at 10 µM", "setting": "[2]", "result": 50, "unit": "%"}, {"measurement": "pIC50", "setting": "[3]", "result": 5.25}, {"measurement": "inhibition at 0.1 µM", "setting": "[3]; read-out: %inh, 0.1 μM", "result": 1, "unit": "%"}, {"measurement": "inhibition at 10 µM", "setting": "[3]; read-out: %inh, 10 μM", "result": 64, "unit": "%"}, {"measurement": "inhibition at 10 µM", "setting": "[3]; [26]", "result": 61, "unit": "%"}, {"measurement": "inhibition at 100 µM", "setting": "[3]; read-out: %inh, 100 μM", "result": 98, "unit": "%"}, {"measurement": "agonistic effect at 5-HT2BR", "setting": "[4]", "result": 3.6, "unit": "% inhibition"}, {"measurement": "inhibition at 10 µM", "setting": "[5]", "result": 10, "unit": "%"}, {"measurement": "pIC50", "setting": "[6]", "result": 6.52}, {"measurement": "pKi", "setting": "[6]", "result": 6.77}, {"measurement": "inhibition at 0.01 µM", "setting": "[6]; read-out: %inh, 10 nM", "result": -3, "unit": "%"}, {"measurement": "inhibition at 0.1 µM", "setting": "[6]; read-out: %inh, 0.1 μM", "result": 27, "unit": "%"}, {"measurement": "inhibition at 1 µM", "setting": "[6]; read-out: %inh, 1 μM", "result": 75, "unit": "%"}, {"measurement": "inhibition at 10 µM", "setting": "[6]; [26]", "result": 102, "unit": "%"}, {"measurement": "inhibition at 0.01 µM", "setting": "[7]; 10 nM", "result": 9, "unit": "%"}, {"measurement": "inhibition at 0.1 µM", "setting": "[7]; 0.1 μM", "result": 9, "unit": "%"}, {"measurement": "inhibition at 1 µM", "setting": "[7]; 1 μM", "result": 32, "unit": "%"}, {"measurement": "inhibition at 10 µM", "setting": "[7]", "result": 107, "unit": "%"}, {"measurement": "inhibition at 10 µM", "setting": "[7]; additional batch", "result": 101, "unit": "%"}, {"measurement": "inhibition at 10 µM", "setting": "[8]", "result": -6, "unit": "%"}, {"measurement": "pIC50", "setting": "[9]", "result": 5.00}, {"measurement": "pKi", "setting": "[9]", "result": 5.34}, {"measurement": "inhibition at 0.1 µM", "setting": "[9]; read-out: %inh, 0.1 μM", "result": 1, "unit": "%"}, {"measurement": "inhibition at 1 µM", "setting": "[9]; read-out: %inh, 1 μM", "result": -4, "unit": "%"}, {"measurement": "inhibition at 10 µM", "setting": "[9]; read-out: %inh, 10 μM", "result": 43, "unit": "%"}, {"measurement": "inhibition at 10 µM", "setting": "[9]; [26]", "result": 53, "unit": "%"}, {"measurement": "inhibition at 100 µM", "setting": "[9]; read-out: %inh, 100 μM", "result": 108, "unit": "%"}, {"measurement": "pIC50", "setting": "[10]", "result": 5.09}, {"measurement": "pKi", "setting": "[10]", "result": 5.49}, {"measurement": "inhibition at 0.1 µM", "setting": "[10]; read-out: %inh, 0.1 μM", "result": 5, "unit": "%"}, {"measurement": "inhibition at 1 µM", "setting": "[10]; read-out: %inh, 1 μM", "result": 8, "unit": "%"}, {"measurement": "inhibition at 10 µM", "setting": "[10]; read-out: %inh, 10 μM", "result": 55, "unit": "%"}, {"measurement": "inhibition at 10 µM", "setting": "[10]; [26]", "result": 64, "unit": "%"}, {"measurement": "inhibition at 100 µM", "setting": "[10]; read-out: %inh, 100 μM", "result": 99, "unit": "%"}, {"measurement": "inhibition at 10 µM", "setting": "[11]", "result": 46, "unit": "%"}, {"measurement": "pKi", "setting": "[12]", "result": 5.36}, {"measurement": "pIC50", "setting": "[13]", "result": 6.59}, {"measurement": "pKi", "setting": "[13]", "result": 6.77}, {"measurement": "inhibition at 0.01 µM", "setting": "[13]; read-out: %inh, 10 nM", "result": 13, "unit": "%"}, {"measurement": "inhibition at 0.1 µM", "setting": "[13]; read-out: %inh, 0.1 μM", "result": 31, "unit": "%"}, {"measurement": "inhibition at 1 µM", "setting": "[13]; read-out: %inh, 1 μM", "result": 71, "unit": "%"}, {"measurement": "inhibition at 10 µM", "setting": "[13]; read-out: %inh, 10 μM", "result": 96, "unit": "%"}, {"measurement": "inhibition at 10 µM", "setting": "[13]; [26]", "result": 97, "unit": "%"}, {"measurement": "inhibition at 10 µM", "setting": "[14]", "result": 26, "unit": "%"}, {"measurement": "inhibition at 10 µM", "setting": "[15]", "result": 45, "unit": "%"}, {"measurement": "inhibition at 10 µM", "setting": "[16]", "result": -9, "unit": "%"}, {"measurement": "pIC50", "setting": "[17]", "result": 4.24}, {"measurement": "inhibition at 10 µM", "setting": "[18]", "result": 8, "unit": "%"}, {"measurement": "inhibition at 10 µM", "setting": "[19]", "result": 27, "unit": "%"}, {"measurement": "inhibition at 10 µM", "setting": "[20]", "result": 16, "unit": "%"}, {"measurement": "inhibition at 10 µM", "setting": "[21]", "result": 21, "unit": "%"}, {"measurement": "pIC50", "setting": "[22]", "result": 5.00}, {"measurement": "pIC50", "setting": "[23]", "result": 5.93}, {"measurement": "pKi", "setting": "[23]", "result": 6.05}, {"measurement": "inhibition at 0.01 µM", "setting": "[23]; read-out: %inh, 10 nM", "result": 5, "unit": "%"}, {"measurement": "inhibition at 0.1 µM", "setting": "[23]; read-out: %inh, 0.1 μM", "result": 4, "unit": "%"}, {"measurement": "inhibition at 1 µM", "setting": "[23]; read-out: %inh, 1 μM", "result": 47, "unit": "%"}, {"measurement": "inhibition at 10 µM", "setting": "[23]; read-out: %inh, 10 μM", "result": 90, "unit": "%"}, {"measurement": "inhibition at 10 µM", "setting": "[23]; [26]", "result": 92, "unit": "%"}, {"measurement": "inhibition at 0.01 µM", "setting": "[24]; 10 nM", "result": -4, "unit": "%"}, {"measurement": "inhibition at 0.1 µM", "setting": "[24]; 0.1 μM", "result": 3, "unit": "%"}, {"measurement": "inhibition at 1 µM", "setting": "[24]; 1 μM", "result": 60, "unit": "%"}, {"measurement": "inhibition at 10 µM", "setting": "[24]", "result": 89, "unit": "%"}, {"measurement": "inhibition at 10 µM", "setting": "[24]; additional batch", "result": 78, "unit": "%"}, {"measurement": "pIC50", "setting": "[25]", "result": 4.92}]}]}
